# From patent US20220233624A9, “ANTI-CANCER AND ANTI-PROLIFERATIVE COMPOSITIONS, AND METHODS FOR THEIR USE IN TREATING CANCER” (Natreon, Inc., priority 2020, published 2022)
# Like-named read-outs stand apart in the source and are kept apart here.
# Columns and labels:
# Type in all cases: cell-based
# [1] = tested on: Prostate cancer (PC-3) cells; experiment: Anti-proliferation assay on prostate cancer cells; conditions: Homo sapiens
# Method: Cells were plated at 1.25 k/well in 384 well plates. […] Anti-proliferative assays were generally performed as discussed in Example I above, in triplicate, with detection reagent CellTiterGlo. Tables 80-82 show data for controls for assays on prostate cancer (PC-3 cells), and that the data passed quality control parameters. Tables 83-85 show data for controls for assays on ovarian cancer (OVCAR-3 cells), and that the data passed quality control parameters.
# [2] = tested on: Non-small cell lung cancer cells (cell line NCI-H-358); experiment: Anti-proliferation assay on non-small cell lung cancer cells; conditions: Homo sapiens, NCI-H358
# Method: Anti-proliferative and anti-cancer activity of extracts of this invention on non-small cell lung cancer cells and colon cancer cells were assessed generally as described in Example I and are discussed below. […] As noted throughout this application, the below data is intended to describe the present invention but not to be limiting.
# Non-small cell lung cancer cells (cell line NCI-H-358) and colon cancer cells (cell line HT-29) were plated in a 384-well plate in amounts of about 1.25 k cells/well. […] Wells with untreated cells and with plain media were also included as controls. Plates passed quality control parameters.
# [3] = tested on: Glioma SB 32833 Glioblastoma Grade IV patient derived cells; experiment: Anti-proliferation assay on glioma PDCs SB 32833; conditions: Homo sapiens, drug @ 10 uM
# Method: The anti-cancer activity of AyuFlex®, Capros®, and Ayuric® was further tested on two other glioma PDCs taken from 2-3 different subjects (SB 6129, SB 32833 (person)). […] Also, the anti-cancer activity of AyuFlex®, Capros®, and Ayuric® was further tested on existing glioblastoma cell line U87 MG, to allow comparisons with other compositions known in the art. AyuFlex®, Capros®, and/or Ayuric® were incubated with the new PDC lines and the U87 MG cell line for 72 hours, as described in Example I above.
# Table 68 relates to FIG. 31, a graph showing the efficacy of AyuFlex®, Capros®, and/or Ayuric® on Glioma SB 32833 Glioblastoma Grade IV patient derived cells, in a combination study.
# [4] = tested on: SHP-77 (small cell lung cancer) cells; experiment: Anti-proliferation assay on small cell lung cancer cells; conditions: Homo sapiens, SHP77
# Method: SHP-77 (small cell lung cancer) cells were incubated for 72 hours with 100 ug/ml, 30 ug/ml, and 10 ug/ml each of AyuFlex®, Capros® Phyto-BGS®, PrimaVie®, Sensoril®, Ayuric®, and Crominex®, and tested according to the anti-proliferative assay described above. Cells were plated at 1.25 k/well in 384 well plates. Standard of care drug docetaxel was also tested at a 10 uM concentration as a control. Anti-proliferative assays were generally performed as discussed above, in triplicate, with detection reagent CellTiterGlo® as discussed for instance in Example I. Tables 77-79 show data for controls and that the data passed quality control parameters.
# [5] = tested on: Acute Promyelocytic Leukemia PDCs (APL-SB 46120); experiment: Anti-proliferation assay on APL subtype AML PDCs; conditions: Homo sapiens
# Method: In this Example, AML drugs were used as disease specific controls.
# The AML PDCs evaluated below were an Acute Promyelocytic Leukemia (APL, APML) subtype, APL-SB 46120, from a human subject.
# IC25 values were calculated using IC50 and hill slope. […] The drugs were used in these concentrations on the new APL subtype cells as described further below. […]
# [6] = 10 uM, 72 h, read-out: % Inhibition Average (SD)
# [7] = 10 uM, 72 h, read-out: % Inhibition n1
# [8] = 10 uM, 72 h, read-out: % Inhibition n2
# [9] = 10 uM, 72 h, read-out: % Inhibition n3
# [10] = drug 10 uM, read-out: inhibition
smiles,measurement,setting,value
"COc1cccc2c1C(=O)c1c(O)c3c(c(O)c1C2=O)C[C@@](O)(C(=O)CO)C[C@@H]3O[C@H]1C[C@H](N)[C@H](O)[C@H](C)O1 [Doxorubicin, doxorubicin]",inhibition at 10 µM,[1]; [6],70%
same,inhibition at 10 µM,[1]; [7],70%
same,inhibition at 10 µM,[1]; [8],70%
same,inhibition at 10 µM,[1]; [9],71%
same,inhibition at 10 µM,[1]; [10],70%
same,inhibition at 10 µM,"[2]; drug 10 uM, read-out: inhibition of proliferation",78%
same,inhibition at 10 µM,"[2]; plate control @ 10 uM, read-out: % Inhibition Average (SD)",78%
same,inhibition at 10 µM,"[2]; plate control @ 10 uM, read-out: % Inhibition n1",79%
same,inhibition at 10 µM,"[2]; plate control @ 10 uM, read-out: % Inhibition n2",77%
same,inhibition at 10 µM,"[2]; plate control @ 10 uM, read-out: % Inhibition n3",77%
same,inhibition at 10 µM,[3]; read-out: % Inhibition Avg,87%
same,inhibition at 10 µM,[3]; read-out: % Inhibition n1,91%
same,inhibition at 10 µM,[3]; read-out: % Inhibition n2,86%
same,inhibition at 10 µM,[3]; read-out: % Inhibition n3,86%
same,inhibition at 10 µM,[4]; [6],93%
same,inhibition at 10 µM,[4]; [7],94%
same,inhibition at 10 µM,[4]; [8],93%
same,inhibition at 10 µM,[4]; [9],93%
same,inhibition at 10 µM,[4]; [10],93%
same,inhibition at 10 µM,"[5]; Plate 1 quality control, read-out: % Inhibition Average",96%
same,inhibition at 10 µM,"[5]; Plate 1 quality control, read-out: % Inhibition n1",97%
same,inhibition at 10 µM,"[5]; Plate 1 quality control, read-out: % Inhibition n2",96%
same,inhibition at 10 µM,"[5]; Plate 1 quality control, read-out: % Inhibition n3",95%
same,inhibition at 10 µM,"[5]; Plate 2 quality control, read-out: % Inhibition Average",97%
same,inhibition at 10 µM,"[5]; Plate 2 quality control, read-out: % Inhibition n1",98%
same,inhibition at 10 µM,"[5]; Plate 2 quality control, read-out: % Inhibition n2",97%
same,inhibition at 10 µM,"[5]; Plate 2 quality control, read-out: % Inhibition n3",97%
